Columns and labels:
Assay in all cases: Kinase profiling in a biochemical assay panel (mobility shift assays and ELISA), %-inhibition at 1 μM; selectivity entropy
[1] = molecular target: panel of more than 300 wild-type and mutant kinases (313 kinase panel) (Homo sapiens, UniProt O14578)
[2] = molecular target: panel of more than 300 wild-type and mutant kinases (313 kinase panel) (Homo sapiens, UniProt O75676)
[3] = molecular target: panel of more than 300 wild-type and mutant kinases (313 kinase panel) (Homo sapiens, UniProt P04049)
panel of more than 300 wild-type and mutant kinases (313 kinase panel) (Homo sapiens, UniProt P04049), sequence (P04049 whole entry, change not shown): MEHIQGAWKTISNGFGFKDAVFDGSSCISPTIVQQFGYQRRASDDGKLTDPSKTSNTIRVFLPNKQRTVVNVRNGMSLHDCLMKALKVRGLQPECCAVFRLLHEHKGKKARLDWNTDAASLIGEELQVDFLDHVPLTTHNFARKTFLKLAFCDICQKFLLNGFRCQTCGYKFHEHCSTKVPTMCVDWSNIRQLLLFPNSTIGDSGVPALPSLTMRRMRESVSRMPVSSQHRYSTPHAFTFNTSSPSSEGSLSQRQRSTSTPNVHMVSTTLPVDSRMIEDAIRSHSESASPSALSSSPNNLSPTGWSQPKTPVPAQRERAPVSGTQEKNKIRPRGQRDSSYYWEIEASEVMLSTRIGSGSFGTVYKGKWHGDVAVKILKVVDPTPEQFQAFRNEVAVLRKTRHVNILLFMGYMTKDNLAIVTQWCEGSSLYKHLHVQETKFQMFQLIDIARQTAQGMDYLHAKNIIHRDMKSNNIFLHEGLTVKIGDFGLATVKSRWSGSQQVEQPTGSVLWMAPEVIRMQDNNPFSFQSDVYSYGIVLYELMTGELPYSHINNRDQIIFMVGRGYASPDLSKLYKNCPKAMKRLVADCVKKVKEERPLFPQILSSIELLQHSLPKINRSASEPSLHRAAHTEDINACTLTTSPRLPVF

[4] = molecular target: panel of more than 300 wild-type and mutant kinases (313 kinase panel) (Homo sapiens, UniProt P06241)
panel of more than 300 wild-type and mutant kinases (313 kinase panel) (Homo sapiens, UniProt P06241), sequence (P06241 whole entry, change not shown): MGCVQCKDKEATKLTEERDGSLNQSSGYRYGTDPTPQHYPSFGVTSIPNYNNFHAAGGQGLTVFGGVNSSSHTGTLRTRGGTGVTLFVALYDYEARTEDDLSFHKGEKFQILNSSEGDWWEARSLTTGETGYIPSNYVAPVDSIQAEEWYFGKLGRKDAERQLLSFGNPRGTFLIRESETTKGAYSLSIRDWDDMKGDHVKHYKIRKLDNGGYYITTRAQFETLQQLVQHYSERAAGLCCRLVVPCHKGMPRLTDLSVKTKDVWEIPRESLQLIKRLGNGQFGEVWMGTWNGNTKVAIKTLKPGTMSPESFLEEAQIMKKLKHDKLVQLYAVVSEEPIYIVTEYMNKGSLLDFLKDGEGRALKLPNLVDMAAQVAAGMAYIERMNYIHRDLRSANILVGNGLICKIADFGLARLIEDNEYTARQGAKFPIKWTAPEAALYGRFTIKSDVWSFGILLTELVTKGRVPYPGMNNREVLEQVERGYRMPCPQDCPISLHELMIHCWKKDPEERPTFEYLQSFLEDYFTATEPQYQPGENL

[5] = molecular target: panel of more than 300 wild-type and mutant kinases (313 kinase panel) (Homo sapiens, UniProt P48729)
[6] = molecular target: panel of more than 300 wild-type and mutant kinases (313 kinase panel) (Homo sapiens, UniProt P51957)
panel of more than 300 wild-type and mutant kinases (313 kinase panel) (Homo sapiens, UniProt P51957), sequence (P51957 whole entry, change not shown): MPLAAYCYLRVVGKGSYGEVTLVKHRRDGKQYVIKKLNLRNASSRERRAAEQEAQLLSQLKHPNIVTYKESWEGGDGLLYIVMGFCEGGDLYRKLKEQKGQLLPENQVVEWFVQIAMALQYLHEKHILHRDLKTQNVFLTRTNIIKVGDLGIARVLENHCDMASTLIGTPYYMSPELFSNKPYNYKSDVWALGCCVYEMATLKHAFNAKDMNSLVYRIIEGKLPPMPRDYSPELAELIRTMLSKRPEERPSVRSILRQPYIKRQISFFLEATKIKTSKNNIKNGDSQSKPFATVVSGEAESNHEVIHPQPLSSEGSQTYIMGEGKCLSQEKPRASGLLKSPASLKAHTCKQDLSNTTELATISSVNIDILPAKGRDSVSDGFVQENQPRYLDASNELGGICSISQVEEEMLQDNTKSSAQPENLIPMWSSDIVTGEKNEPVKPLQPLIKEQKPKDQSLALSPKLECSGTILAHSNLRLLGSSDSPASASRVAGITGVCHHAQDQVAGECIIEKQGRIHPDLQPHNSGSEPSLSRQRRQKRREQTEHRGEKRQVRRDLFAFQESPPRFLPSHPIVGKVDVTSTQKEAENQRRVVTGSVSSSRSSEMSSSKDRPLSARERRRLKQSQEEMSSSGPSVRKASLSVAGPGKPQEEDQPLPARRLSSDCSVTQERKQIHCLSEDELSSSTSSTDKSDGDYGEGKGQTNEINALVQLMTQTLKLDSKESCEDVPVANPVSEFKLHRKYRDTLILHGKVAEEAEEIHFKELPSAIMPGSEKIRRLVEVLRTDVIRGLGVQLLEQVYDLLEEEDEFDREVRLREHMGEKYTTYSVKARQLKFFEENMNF

[7] = molecular target: T1, panel of more than 300 wild-type and mutant kinases (313 kinase panel) (Homo sapiens, UniProt Q9UL54)
T1 sequence (Q9UL54 1-1235): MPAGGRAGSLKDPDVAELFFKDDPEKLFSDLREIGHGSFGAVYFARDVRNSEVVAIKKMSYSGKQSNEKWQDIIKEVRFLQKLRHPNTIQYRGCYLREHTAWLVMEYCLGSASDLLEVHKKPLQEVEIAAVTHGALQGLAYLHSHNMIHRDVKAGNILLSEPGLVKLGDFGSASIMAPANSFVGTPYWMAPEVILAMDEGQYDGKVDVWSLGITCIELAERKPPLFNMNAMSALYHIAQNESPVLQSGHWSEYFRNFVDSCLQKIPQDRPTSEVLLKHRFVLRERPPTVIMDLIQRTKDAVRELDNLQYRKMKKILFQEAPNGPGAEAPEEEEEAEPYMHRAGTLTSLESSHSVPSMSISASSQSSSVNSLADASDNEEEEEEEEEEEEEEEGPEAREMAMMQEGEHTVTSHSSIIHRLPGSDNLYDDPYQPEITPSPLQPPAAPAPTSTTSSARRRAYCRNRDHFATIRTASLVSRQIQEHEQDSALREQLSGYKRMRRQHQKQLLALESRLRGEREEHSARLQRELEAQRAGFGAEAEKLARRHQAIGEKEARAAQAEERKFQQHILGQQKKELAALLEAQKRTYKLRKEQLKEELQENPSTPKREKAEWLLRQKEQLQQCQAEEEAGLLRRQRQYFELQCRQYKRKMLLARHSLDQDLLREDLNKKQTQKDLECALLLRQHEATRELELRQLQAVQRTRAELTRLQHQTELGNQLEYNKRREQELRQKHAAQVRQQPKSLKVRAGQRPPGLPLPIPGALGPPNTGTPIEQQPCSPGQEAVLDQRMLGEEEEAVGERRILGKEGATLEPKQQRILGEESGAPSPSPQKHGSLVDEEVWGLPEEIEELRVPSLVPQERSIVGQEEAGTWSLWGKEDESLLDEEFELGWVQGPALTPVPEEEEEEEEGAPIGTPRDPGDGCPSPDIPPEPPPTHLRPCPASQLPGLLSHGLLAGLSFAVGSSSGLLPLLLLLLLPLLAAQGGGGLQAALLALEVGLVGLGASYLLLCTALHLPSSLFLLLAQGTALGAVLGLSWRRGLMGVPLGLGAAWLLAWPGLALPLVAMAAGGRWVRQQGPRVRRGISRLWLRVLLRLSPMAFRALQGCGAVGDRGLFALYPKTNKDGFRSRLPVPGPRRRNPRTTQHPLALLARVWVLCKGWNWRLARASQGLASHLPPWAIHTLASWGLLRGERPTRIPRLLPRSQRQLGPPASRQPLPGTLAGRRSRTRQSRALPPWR

[8] = molecular target: panel of more than 300 wild-type and mutant kinases (313 kinase panel) (Homo sapiens, UniProt P08581, Y1235D)
[9] = molecular target: panel of more than 300 wild-type and mutant kinases (313 kinase panel) (Homo sapiens, UniProt P12931)
[10] = molecular target: T2, panel of more than 300 wild-type and mutant kinases (313 kinase panel) (Homo sapiens, UniProt O14965)
T2 sequence (O14965 1-403): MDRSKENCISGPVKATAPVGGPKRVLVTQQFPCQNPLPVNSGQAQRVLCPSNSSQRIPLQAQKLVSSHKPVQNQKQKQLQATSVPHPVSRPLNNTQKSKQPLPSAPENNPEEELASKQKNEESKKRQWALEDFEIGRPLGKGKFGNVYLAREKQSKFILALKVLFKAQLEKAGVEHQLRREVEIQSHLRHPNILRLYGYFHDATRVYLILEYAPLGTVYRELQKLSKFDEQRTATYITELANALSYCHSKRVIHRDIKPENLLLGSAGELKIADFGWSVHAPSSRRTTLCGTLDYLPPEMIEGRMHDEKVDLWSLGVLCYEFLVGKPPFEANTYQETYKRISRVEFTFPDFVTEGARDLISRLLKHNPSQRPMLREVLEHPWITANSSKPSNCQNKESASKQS

[11] = kinase MET(Y1235D), compound at 1 μM
[12] = kinase AurA/TPX2, 1 μM compound

panel of more than 300 wild-type and mutant kinases (313 kinase panel) (Homo sapiens, UniProt O14578), sequence (O14578 whole entry, change not shown): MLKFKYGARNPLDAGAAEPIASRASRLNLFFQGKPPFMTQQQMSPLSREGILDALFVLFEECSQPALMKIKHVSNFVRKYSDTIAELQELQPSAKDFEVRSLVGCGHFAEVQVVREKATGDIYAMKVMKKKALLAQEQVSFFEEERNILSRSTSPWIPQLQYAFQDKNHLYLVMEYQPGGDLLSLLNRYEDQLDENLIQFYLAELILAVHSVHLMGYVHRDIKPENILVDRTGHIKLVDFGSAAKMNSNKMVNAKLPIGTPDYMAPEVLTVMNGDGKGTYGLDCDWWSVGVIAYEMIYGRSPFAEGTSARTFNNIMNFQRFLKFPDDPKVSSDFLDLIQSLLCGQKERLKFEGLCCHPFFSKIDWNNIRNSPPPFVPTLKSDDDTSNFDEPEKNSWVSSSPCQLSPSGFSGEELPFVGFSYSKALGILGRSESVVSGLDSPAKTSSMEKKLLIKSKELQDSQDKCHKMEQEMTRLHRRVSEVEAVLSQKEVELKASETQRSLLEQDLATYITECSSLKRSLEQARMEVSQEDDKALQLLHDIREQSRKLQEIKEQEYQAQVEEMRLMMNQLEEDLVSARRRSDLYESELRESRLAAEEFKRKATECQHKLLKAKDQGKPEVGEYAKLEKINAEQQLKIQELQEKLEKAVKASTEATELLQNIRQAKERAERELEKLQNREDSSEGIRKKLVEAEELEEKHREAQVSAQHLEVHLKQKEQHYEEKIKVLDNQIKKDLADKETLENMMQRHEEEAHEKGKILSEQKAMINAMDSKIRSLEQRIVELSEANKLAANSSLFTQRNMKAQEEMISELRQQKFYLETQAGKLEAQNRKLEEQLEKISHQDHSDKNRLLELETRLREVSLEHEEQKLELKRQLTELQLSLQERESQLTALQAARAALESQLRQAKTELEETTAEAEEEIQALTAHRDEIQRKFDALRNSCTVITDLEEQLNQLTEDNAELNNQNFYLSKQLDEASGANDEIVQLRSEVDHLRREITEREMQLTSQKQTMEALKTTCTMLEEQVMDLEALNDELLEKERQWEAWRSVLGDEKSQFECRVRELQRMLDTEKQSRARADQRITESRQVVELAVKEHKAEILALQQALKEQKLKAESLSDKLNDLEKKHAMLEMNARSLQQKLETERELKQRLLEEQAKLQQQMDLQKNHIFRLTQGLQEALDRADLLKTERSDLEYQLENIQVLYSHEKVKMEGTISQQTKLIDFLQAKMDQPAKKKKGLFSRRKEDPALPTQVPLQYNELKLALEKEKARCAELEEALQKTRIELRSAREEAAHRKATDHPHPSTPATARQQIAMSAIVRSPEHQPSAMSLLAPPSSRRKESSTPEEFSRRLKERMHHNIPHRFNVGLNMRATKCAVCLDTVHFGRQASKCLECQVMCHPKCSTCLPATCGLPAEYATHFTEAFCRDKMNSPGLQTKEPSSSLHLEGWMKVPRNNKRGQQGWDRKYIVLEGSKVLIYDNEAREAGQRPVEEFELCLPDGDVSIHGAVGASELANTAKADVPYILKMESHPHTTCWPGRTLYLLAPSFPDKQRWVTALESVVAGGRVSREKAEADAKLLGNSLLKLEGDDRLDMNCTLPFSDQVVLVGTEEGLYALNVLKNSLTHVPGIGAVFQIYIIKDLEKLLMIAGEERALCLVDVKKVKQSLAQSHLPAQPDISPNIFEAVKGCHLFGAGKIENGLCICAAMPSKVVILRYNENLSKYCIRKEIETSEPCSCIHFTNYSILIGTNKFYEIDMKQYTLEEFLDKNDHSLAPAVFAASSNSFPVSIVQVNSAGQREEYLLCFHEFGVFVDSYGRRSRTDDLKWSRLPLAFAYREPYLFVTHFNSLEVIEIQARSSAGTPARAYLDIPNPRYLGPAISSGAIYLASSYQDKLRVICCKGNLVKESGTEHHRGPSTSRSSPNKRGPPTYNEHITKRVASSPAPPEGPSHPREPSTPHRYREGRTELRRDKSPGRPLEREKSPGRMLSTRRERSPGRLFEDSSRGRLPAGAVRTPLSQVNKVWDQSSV

| SMILES | %-inhibition of CRIK ([1]; kinase CRIK, compound at 1 μM) [%] | %-inhibition of MSK2 ([2]; kinase MSK2, 1 μM) [%] | %-inhibition of RAF1 ([3]; kinase RAF1, 1 μM) [%] | %-inhibition of FYN ([4]; kinase FYN, compound at 1 μM) [%] | %-inhibition, CK1α ([5]; kinase CK1α, 1 μM compound) [%] | %-inhibition of NEK4 ([6]; kinase NEK4, 1 μM) [%] | %-inhibition of TAOK2 ([7]; kinase TAOK2, 1 μM) [%] | %-inhibition of MET(Y1235D) [8, 11] [%] | %-inhibition of SRC ([9]; kinase SRC, 1 μM) [%] | %-inhibition, AurA/TPX2 [10, 12] [%] | %-inhibition, AurA ([10]; kinase AurA, 1 μM compound) [%] | further results |
| --- | --- | --- | --- | --- | --- | --- | --- | --- | --- | --- | --- | --- |
| C[C@@H](Oc1cc(-c2cnn(C3CCNCC3)c2)cnc1N)c1c(Cl)ccc(F)c1Cl [crizotinib] | -12 | -1.8 | 11 | 42 | -1.36 | 4.57 | 33 | – | – | – | – | – |
| CC(C)(C)c1nc(-c2cccc(NS(=O)(=O)c3c(F)cccc3F)c2F)c(-c2ccnc(N)n2)s1 [dabrafenib] | -2.74 | – | 99 | – | 13 | 4 | 34 | 25 | 68 | – | – | – |
| COc1cc2c(Nc3ccc(Br)cc3F)ncnc2cc1OCC1CCN(C)CC1 [vandetanib] | -2.19 | -3.21 | 41 | 88 | -3.59 | -6.51 | -3.51 | – | – | – | – | – |
| O=S(=O)(c1cccc2cnccc12)N1CCCNCC1 [fasudil] | 7 | 15 | 8 | 8.5 | – | -1.87 | -2.59 | -2.65 | -5 | -1.11 | -2 | – |
| C#Cc1cccc(Nc2ncnc3cc(OCCOC)c(OCCOC)cc23)c1 [erlotinib] | – | – | – | – | – | – | – | – | – | – | – | %-inhibition of CRIK ([1]; 1 µM): 21%; %-inhibition, AurA ([10]; 1 µM): 29%; %-inhibition, AurA/TPX2 ([10]; 1 µM): 1.46%; %-inhibition of MSK2 ([2]; 1 µM): 5%; %-inhibition of RAF1 ([3]; 1 µM): 0.534%; %-inhibition of FYN ([4]; 1 µM): 34%; %-inhibition of MET(Y1235D) ([8]; 1 µM): 22%; %-inhibition of SRC ([9]; 1 µM): 46%; %-inhibition, CK1α ([5]; 1 µM): 10%; %-inhibition of NEK4 ([6]; 1 µM): 0.778%; %-inhibition of TAOK2 ([7]; 1 µM): -8% |
| COc1cc2nccc(Oc3ccc(NC(=O)C4(C(=O)Nc5ccc(F)cc5)CC4)cc3)c2cc1OC [cabozantinib] | -10 | -3.52 | 48 | 91 | -9 | 16 | 6 | – | 92 | 29 | 54 | – |
| Cc1ccc(C(=O)Nc2ccc(CN3CCN(C)CC3)c(C(F)(F)F)c2)cc1C#Cc1cnc2cccnn12 [ponatinib] | 61 | 27 | 96 | 101 | 8 | 98 | 74 | – | 102 | -3.42 | 9 | – |
| CCCS(=O)(=O)Nc1ccc(F)c(C(=O)c2c[nH]c3ncc(-c4ccc(Cl)cc4)cc23)c1F [vemurafenib] | -6 | -1 | 96 | 81 | -4.34 | -0.416 | 5.35 | 2.5 | 52 | -2.59 | 23 | – |
| CCN(CC)CCNC(=O)c1c(C)[nH]c(/C=C2\C(=O)Nc3ccc(F)cc32)c1C [sunitinib] | – | – | – | 88 | – | – | – | – | – | 72 | 81 | – |
| Cc1cn(-c2cc(NC(=O)c3ccc(C)c(Nc4nccc(-c5cccnc5)n4)c3)cc(C(F)(F)F)c2)cn1 [nilotinib] | -16 | 2.55 | – | 59 | – | -22 | 7.47 | -4.56 | 23 | -9 | -5.43 | %-inhibition of RAF1 ([3]; 1 µM): 58%; %-inhibition, CK1α ([5]; 1 µM): 2% |
| Cc1nc(Nc2ncc(C(=O)Nc3c(C)cccc3Cl)s2)cc(N2CCN(CCO)CC2)n1 [dasatinib] | 10 | – | – | 100 | -8.44 | 1.17 | – | – | – | 22 | – | – |
| Cc1ccc(Nc2nccc(N(C)c3ccc4c(C)n(C)nc4c3)n2)cc1S(N)(=O)=O [pazopanib] | -2 | 1.45 | 85 | – | -4 | 12 | 53 | – | 67 | – | – | – |
| COc1cc(Nc2c(C#N)cnc3cc(OCCCN4CCN(C)CC4)c(OC)cc23)c(Cl)cc1Cl [bosutinib] | 73 | -2.27 | -3 | 95 | – | 84 | 10 | 14 | 96 | – | – | – |
| CO[C@H]1C[C@@H]2CC[C@@H](C)[C@@](O)(O2)C(=O)C(=O)N2CCCC[C@H]2C(=O)O[C@H]([C@H](C)C[C@@H]2CC[C@@H](OC(=O)C(C)(CO)CO)[C@H](OC)C2)CC(=O)[C@H](C)/C=C(\C)[C@@H](O)[C@@H](OC)C(=O)[C@H](C)C[C@H](C)/C=C/C=C/C=C/1C [temsirolimus] | -15 | -5 | -0.648 | -1.39 | -14 | 0.416 | – | -6.4 | 0.915 | -3.42 | -12 | – |
